From PubChem BioAssay (NCI)
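Protocol summary: plate cells (96-well), add compound at 5 concentrations, incubate 48 h, interpolate endpoints linearly. TGI: concentration producing complete growth inhibition.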

What was measured:
Assay in all cases: DTP human tumour cell line panel, 48 h
[1] = system: A498 renal
[2] = system: KM20L2 colon
[3] = system: UACC-257 melanoma
[4] = system: EKVX NSCLC
[5] = system: RPMI-8226 leukemia
[6] = system: SK-OV-3 ovarian
[7] = system: SW-620 colon
[8] = system: SK-MEL-28 melanoma
[9] = system: SF-295 CNS
[10] = system: KM12 colon
[11] = system: COLO 205 colon
[12] = system: SK-MEL-2 melanoma
[13] = system: ACHN renal
[14] = system: MALME-3M melanoma
[15] = system: LXFL 529 NSCLC
[16] = system: A549 NSCLC
[17] = system: HL-60(TB) leukemia
[18] = system: OVCAR-8 ovarian
[19] = system: DMS 114 small cell lung
[20] = system: SN12C renal
[21] = system: 786-0 renal
[22] = system: NCI-H23 lung
[23] = system: XF 498 CNS
[24] = system: TK-10 renal
[25] = system: MOLT-4 leukemia
[26] = system: K-562 leukemia
[27] = system: UACC-62 melanoma
[28] = system: DLD-1 colon
[29] = system: DMS 273 small cell lung
[30] = system: UO-31 renal
[31] = system: HT29 colon
[32] = system: SNB-75 CNS
[33] = system: OVCAR-5 ovarian
[34] = system: SNB-19 CNS
[35] = system: M19-MEL melanoma
[36] = system: NCI-H522 lung
[37] = system: HCC-2998 colon
[38] = system: CCRF-CEM leukemia
[39] = system: NCI-H460 lung
[40] = system: HCT-116 colon
[41] = system: OVCAR-4 ovarian
[42] = system: U251 CNS
[43] = system: LOX IMVI melanoma
[44] = system: M14 melanoma
[45] = system: HCT-15 colon
[46] = system: SR leukemia
[47] = system: SK-MEL-5 melanoma
[48] = system: NCI-H226 lung
[49] = system: SF-268 CNS
[50] = system: IGROV1 ovarian
[51] = system: OVCAR-3 ovarian
[52] = system: SF-539 CNS
[53] = system: HOP-62 NSCLC
[54] = system: CAKI-1 renal
[55] = system: RXF 393 renal
[56] = system: HOP-92 NSCLC
[57] = system: SNB-78 CNS

Measured: TGI

CSc1nc(C)cc(=O)n1C1OC(COC(C)=O)C(OC(C)=O)C(OC(C)=O)C1OC(C)=O (stereo unspecified)
not listed: [52] | [53] | [54] | [55] | [56] | [57]
> 100 µM: all other assays above

NNC(=O)N/N=C1\CNC(=O)C(=O)C1c1nc2ccccc2s1 (stereo unspecified)
not listed: [25] | [46]
> 100 µM: all other assays above
